# Legend:
# [1] = molecular target: T1, soluble guanylyl cyclase (sGC) (Homo sapiens, UniProt Q02108+Q02153); conditions: cited from earlier work
# T1 sequence (Q02153 1-619): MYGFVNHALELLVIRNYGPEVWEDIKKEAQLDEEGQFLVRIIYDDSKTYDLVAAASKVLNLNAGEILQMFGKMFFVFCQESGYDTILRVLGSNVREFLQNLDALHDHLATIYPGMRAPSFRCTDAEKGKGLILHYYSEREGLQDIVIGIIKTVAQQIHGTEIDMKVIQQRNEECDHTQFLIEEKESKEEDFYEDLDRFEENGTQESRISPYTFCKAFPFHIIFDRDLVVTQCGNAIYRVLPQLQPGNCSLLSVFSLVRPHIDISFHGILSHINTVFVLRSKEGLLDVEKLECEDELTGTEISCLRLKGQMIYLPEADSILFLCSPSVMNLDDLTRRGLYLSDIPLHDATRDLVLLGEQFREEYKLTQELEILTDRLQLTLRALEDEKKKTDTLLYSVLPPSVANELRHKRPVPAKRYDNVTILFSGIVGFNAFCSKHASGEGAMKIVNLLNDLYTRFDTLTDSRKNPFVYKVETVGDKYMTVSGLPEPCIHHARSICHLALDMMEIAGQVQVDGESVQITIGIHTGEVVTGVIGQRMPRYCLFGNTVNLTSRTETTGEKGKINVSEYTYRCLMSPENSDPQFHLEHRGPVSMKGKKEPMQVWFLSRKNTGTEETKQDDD
# T1 sequence (Q02108 1-690): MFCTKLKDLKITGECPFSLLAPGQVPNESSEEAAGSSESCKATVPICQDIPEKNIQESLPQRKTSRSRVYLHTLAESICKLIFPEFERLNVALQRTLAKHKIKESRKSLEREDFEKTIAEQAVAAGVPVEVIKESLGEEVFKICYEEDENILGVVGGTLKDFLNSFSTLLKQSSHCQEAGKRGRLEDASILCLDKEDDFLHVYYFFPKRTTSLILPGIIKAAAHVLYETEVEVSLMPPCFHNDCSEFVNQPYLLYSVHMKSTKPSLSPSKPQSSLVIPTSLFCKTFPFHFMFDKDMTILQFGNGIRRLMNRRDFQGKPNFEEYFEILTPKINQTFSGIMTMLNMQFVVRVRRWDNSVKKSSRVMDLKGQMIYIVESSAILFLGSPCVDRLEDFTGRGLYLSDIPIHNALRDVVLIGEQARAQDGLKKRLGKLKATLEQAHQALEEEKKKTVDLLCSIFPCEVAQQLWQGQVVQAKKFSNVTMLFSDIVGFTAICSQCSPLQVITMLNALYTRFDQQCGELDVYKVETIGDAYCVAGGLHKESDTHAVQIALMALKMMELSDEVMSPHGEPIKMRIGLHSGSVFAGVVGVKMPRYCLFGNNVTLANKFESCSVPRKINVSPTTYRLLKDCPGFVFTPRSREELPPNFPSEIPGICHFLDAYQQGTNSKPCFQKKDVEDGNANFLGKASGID
# [2] = test system: vessel wall cGMP (sGC/cGMP system) in left carotid artery; test: Cyclic GMP levels by RIA in balloon injured left carotid artery sections after perivascular YC-1; format: in vivo, rat
# Procedure: Cyclic GMP levels were measured in vessel samples with a competitive RIA using ^125I-labeled cGMP, following instructions from the manufacturer (Amersham Pharmacia Biotech, Piscataway, N.J.). […]
# [3] = test system: balloon injured left carotid artery (neointima formation); test: Morphometric and histologic analysis of balloon-injured left carotid artery 2 weeks post-injury; format: in vivo, rat
# Procedure: The established rat carotid artery (CA) provided the model of balloon angioplasty to illustrate the in vivo arterial response to injury. Male Sprague Dawley rats (Harlan, Indianapolis, Ind.) weighing an average 497 g were anesthetized with a combination anesthetic (ketamine, zylazine, and acepromazine; 0.5-0.7 ml/kg, IM; VetMed Drugs, Houston, Tex.), and the left CA and external carotid branch exposed.
# A Fogarty 2F embolectomy catheter (Baxter Healthcare Corp., Irvine, Calif.) was introduced into the external carotid branch through an arteriotomy incision and advanced to the aortic arch. The balloon was inflated and withdrawn three times with rotation. The catheter was removed and the external carotid ligated. The overlying tissue was sutured and the skin closed with rodent wound clips.
# In one embodiment, the entire length of the left CA was balloon injured, immediately followed by perivascular application of YC-1 (1 mg) on the distal section. Sites where tissues were taken for “distal+YC-1” and “proximal−YC-1” are indicated. The right CA served as an uninjured control. EC=external carotid branch; IC=internal carotid branch.
# Immediately following balloon injury, at least about 200 μl of a 25% solution of a copolymer gel (Pluronic F-127; BASF Corporation, Mount Olive, N.J.) plus YC-1 (at least about 1 mg in 50 μl DMSO; Calbiochem, La Jolla, Calif.) was administered topically to the exposed adventitia of the distal CA section. […] In all experiments, the entire length of the left CA was injured (avg. 22 mm), while the contralateral right CA served as an unmanipulated untreated control. Only the distal half of the injured left CA was exposed during the surgery, and this section (approximately 11 mm) was treated with YC-1 (or empty gel) while the proximal half remained untreated. A cohort of animals that was balloon-injured and not exposed to any gel or other treatment served as a separate control group.
# Acute studies illustrating enzyme and cGMP induction used freshly obtained tissues that were removed from the sacrificed animal and immediately snap-frozen. In one embodiment, two week studies were performed and morphologic remodeling of the vessel wall was monitored in tissue from animals that were perfusion-fixed transcardially using warmed PBS followed by 10% buffered formalin phosphate. Tissues were fixed, processed by standard procedures, and paraffin-embedded, procedures that are well-known to those of ordinary skill in the art of histology. Five micron sections were cut using a rotary microtome and placed on pre-treated slides. For Verhoff's elastic tissue staining, slides were deparaffinized and stained with Verhoff's solution of alcoholic hematoxylin, ferric chloride, and potassium iodine. Slides differentiated with ferric chloride and counterstained with Van Gieson's solution containing 1% acid fuchsin and picric acid.
# Microscopic quantitation of vessel dimensions was performed using Zeiss Image 3.0 (Media Cybernetics) and Adobe Photoshop 4.0™ (Adobe Systems) software systems linked through a CCD color camera (Leaf Microlumina, Leaf Systems, USA) to a Zeiss Axioskop 50 light microscope (Carl Zeiss, Germany). Images were measured for perimeters and areas corresponding to internal and external elastic laminae and lumen. Numerical transformations provided data for neointimal and medial wall areas and vessel diameters.
# FIG. 6 depicts representative morphometric analyses for (a) neointimal cross-sectional area, (b) neointimal area/medial wall area ratio, (c) neointimal thickness and (d) medial wall area [(a), (b) and (c) statistically significant with p<0.001; (d) statistically significant with p<0.05]. Data for balloon injured left CA distal sections exposed to YC-1 (“distal+YC-1”) and for balloon injured left CA proximal sections not exposed to YC-1 (“proximal−YC-1”) are shown. Values represent mean±SE. For all parameters n=6 animals in the control group and n=9 animals in the YC-1 treated group.
# vascular HO-1 = conditions: pharmacologic administration of hemin; cited from earlier work
compound,measurement,setting,value
"[C-]#[O+] [CO, carbon monoxide]",activation of the purified enzyme (sGC),[1],4- to 6 fold
"OCc1ccc(-c2nn(Cc3ccccc3)c3ccccc23)o1 [YC-1, 3-(5′-hydroxymethyl-2′-furyl)-1-benzyl indazole]",YC-1 induced alterations in cGMP,[2]; CA sections from a separate group of uninjured rats (data not shown),do not show YC-1 induced alterations in cGMP
same,cGMP content,"[2]; injured CA distal sections exposed to YC-1 (1 mg in gel), 24 hours post-injury, mean±SE, n=5, proximal unexposed sections 0.64±0.11, p=0.012",1.23±0.13
same,histology of elastin-stained cross-section: adventitia and collagen staining,"[3]; FIG. 5 panel (B), distal section treated with 1 mg YC-1, 2 weeks post-injury",decreased adventitia and reduced collagen staining
same,lengths of internal elastic laminae and external elastic laminae,"[3]; between and among all treatment groups, 2 weeks post-injury",No differences were detected
same,"neointimal cross-sectional area, attenuation","[3]; distal YC-1 (1 mg) sections vs proximal unexposed sections of same vessel, 2 weeks post-injury, p<0.001, n=9",−74%
same,"neointimal thickness, attenuation","[3]; distal YC-1 (1 mg) sections vs proximal unexposed sections, 2 weeks post-injury, p<0.001, n=9",-76%
same,"medial wall cross-sectional area, diminution","[3]; distal YC-1 (1 mg) sections vs proximal unexposed sections, 2 weeks post-injury, p<0.05, n=9",−12%
same,"neointimal area/medial wall area ratio, attenuation","[3]; distal YC-1 (1 mg) sections vs proximal unexposed sections, 2 weeks post-injury, p=0.001, n=9",−72%
same,stimulation of CO-induced sGC (specific activity),[1],approximately 400 fold
hemin,vascular HO-1 expression,vascular HO-1,upregulated vascular HO-1
"[N]=O [NO, nitric oxide]",activation of the purified enzyme (sGC),[1],400 fold
